# Assay results as given in PubChem BioAssay AID248 (DTP/NCI, 2004).
# “And” between values parts separate entries of the source, which are not always exact repeats. Identical values can stand only once. Inconclusive results and toxic doses are left out.
# Tested on: L1210 leukemia ip in BDF1 mice, survival T/C
# Experiment: NCI In Vivo Anticancer Drug Screen. Data for tumor model L1210 Leukemia (intraperitoneal) in B6D2F1 (BDF1) mice
# Conditions: endpoint: mean survival time, vehicle: saline, higher = longer survival
# Summary of the method: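 Tumor was transplanted into mice, which were then dosed with test compound or vehicle alone. Survival was recorded for each group, and the treated figure was expressed relative to the control figure.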
structure (smiles),measurement,setting,value
CSc1ncnc2c1ncn2C1OC(CO)C(O)C1O (stereo not drawn),T/C,"dose: 0.5 mg/kg/injection, schedule: Q#A X Z (ip)",120 % of control
same,T/C,"dose: 0.82 mg/kg/injection, schedule: Q07DX003 (ip)",107 % of control
same,T/C,"dose: 1.0 mg/kg/injection, schedule: Q01DX Z (ip)",113 % of control
same,T/C,"dose: 1.25 mg/kg/injection, schedule: Q06HX068 (ip)",123 % of control
same,T/C,"dose: 2.0 mg/kg/injection, schedule: Q01DX010 (ip)",109 % of control and 112 % of control
same,T/C,"dose: 2.0 mg/kg/injection, schedule: Q01DX Z (ip)",123 % of control
same,T/C,"dose: 3.25 mg/kg/injection, schedule: Q07DX003 (ip)",115 % of control
same,T/C,"dose: 4.0 mg/kg/injection, schedule: Q01DX006 (iv)",109 % of control
same,T/C,"dose: 4.0 mg/kg/injection, schedule: Q01DX010 (ip)",117 % of control
same,T/C,"dose: 4.0 mg/kg/injection, schedule: Q01DX Z (im)",117 % of control
same,T/C,"dose: 4.0 mg/kg/injection, schedule: Q01DX Z (sc)",102 % of control
same,T/C,"dose: 5.0 mg/kg/injection, schedule: Q01DX010 (ip)",113 % of control and 122 % of control
same,T/C,"dose: 5.0 mg/kg/injection, schedule: Q01DX017 (ip)",105 % of control
same,T/C,"dose: 5.0 mg/kg/injection, schedule: Q#A X034 (ip)",118 % of control
same,T/C,"dose: 6.5 mg/kg/injection, schedule: Q07DX003 (ip)",115 % of control and 121 % of control
same,T/C,"dose: 6.65 mg/kg/injection, schedule: Q#A X Z (ip)",151 % of control
same,T/C,"dose: 8.0 mg/kg/injection, schedule: Q01DX006 (iv)",105 % of control
same,T/C,"dose: 8.0 mg/kg/injection, schedule: Q01DX010 (ip)",118 % of control and 124 % of control
same,T/C,"dose: 8.0 mg/kg/injection, schedule: Q01DX Z (im)",115 % of control
same,T/C,"dose: 8.0 mg/kg/injection, schedule: Q01DX Z (sc)",113 % of control
same,T/C,"dose: 10.0 mg/kg/injection, schedule: Q12HX010 (ip)",119 % of control
same,T/C,"dose: 10.0 mg/kg/injection, schedule: Q## X032 (ip)",119 % of control
same,T/C,"dose: 12.5 mg/kg/injection, schedule: Q01DX010 (ip)",150 % of control
same,T/C,"dose: 13.0 mg/kg/injection, schedule: Q## X004 (ip)",114 % of control
same,T/C,"dose: 15.0 mg/kg/injection, schedule: Q01DX010 (ip)",152 % of control
same,T/C,"dose: 15.0 mg/kg/injection, schedule: Q01DX Z (oral)",119 % of control
same,T/C,"dose: 16.0 mg/kg/injection, schedule: Q01DX006 (iv)",112 % of control
same,T/C,"dose: 16.0 mg/kg/injection, schedule: Q01DX Z (sc)",115 % of control
same,T/C,"dose: 18.0 mg/kg/injection, schedule: Q01DX001 (ip)",104 % of control and 106 % of control
same,T/C,"dose: 20.0 mg/kg/injection, schedule: Q01DX015 (ip)",153 % of control
same,T/C,"dose: 20.0 mg/kg/injection, schedule: Q12HX006 (ip)",110 % of control
same,T/C,"dose: 20.0 mg/kg/injection, schedule: Q12HX010 (ip)",120 % of control
same,T/C,"dose: 20.0 mg/kg/injection, schedule: Q## X004 (ip)",121 % of control
same,T/C,"dose: 20.0 mg/kg/injection, schedule: Q#A X034 (ip)",103 % of control
same,T/C,"dose: 21.0 mg/kg/injection, schedule: Q## X015 (ip)",152 % of control
same,T/C,"dose: 22.0 mg/kg/injection, schedule: Q## X032 (ip)",124 % of control
same,T/C,"dose: 23.0 mg/kg/injection, schedule: Q03DX006 (ip)",113 % of control
same,T/C,"dose: 25.0 mg/kg/injection, schedule: Q01DX001 (ip)",122 % of control and 124 % of control
same,T/C,"dose: 25.0 mg/kg/injection, schedule: Q01DX005 (ip)",150 % of control
same,T/C,"dose: 26.0 mg/kg/injection, schedule: Q01DX001 (ip)",103 % of control
same,T/C,"dose: 27.0 mg/kg/injection, schedule: Q01DX001 (ip)",110 % of control and 120 % of control
same,T/C,"dose: 30.0 mg/kg/injection, schedule: Q01DX003 (ip)",151 % of control
same,T/C,"dose: 30.0 mg/kg/injection, schedule: Q01DX015 (ip)",153 % of control
same,T/C,"dose: 30.0 mg/kg/injection, schedule: Q## X004 (ip)",121 % of control
same,T/C,"dose: 31.0 mg/kg/injection, schedule: Q## X015 (ip)",152 % of control
same,T/C,"dose: 32.0 mg/kg/injection, schedule: Q01DX006 (iv)",115 % of control and 117 % of control
same,T/C,"dose: 32.0 mg/kg/injection, schedule: Q01DX Z (im)",153 % of control
same,T/C,"dose: 32.0 mg/kg/injection, schedule: Q01DX Z (ip)",102 % of control
same,T/C,"dose: 32.0 mg/kg/injection, schedule: Q01DX Z (sc)",151 % of control
same,T/C,"dose: 32.0 mg/kg/injection, schedule: Q## X015 (ip)",103 % of control and 115 % of control
same,T/C,"dose: 32.0 mg/kg/injection, schedule: Q## X032 (ip)",122 % of control
same,T/C,"dose: 38.0 mg/kg/injection, schedule: Q01DX015 (ip)",100 % of control
same,T/C,"dose: 39.5 mg/kg/injection, schedule: Q01DX015 (ip)",123 % of control
same,T/C,"dose: 39.5 mg/kg/injection, schedule: Q## X015 (ip)",123 % of control
same,T/C,"dose: 40.0 mg/kg/injection, schedule: Q01DX001 (ip)",107 % of control and 110 % of control and 112 % of control
same,T/C,"dose: 40.0 mg/kg/injection, schedule: Q01DX017 (ip)",108 % of control
same,T/C,"dose: 40.0 mg/kg/injection, schedule: Q12HX006 (ip)",120 % of control
same,T/C,"dose: 45.0 mg/kg/injection, schedule: Q01DX015 (ip)",102 % of control and 110 % of control
same,T/C,"dose: 45.0 mg/kg/injection, schedule: Q03DX006 (ip)",120 % of control
same,T/C,"dose: 47.0 mg/kg/injection, schedule: Q## X015 (ip)",98 % of control and 103 % of control
same,T/C,"dose: 50.0 mg/kg/injection, schedule: Q01DX001 (ip)",113 % of control and 122 % of control
same,T/C,"dose: 50.0 mg/kg/injection, schedule: Q01DX009 (ip)",102 % of control
same,T/C,"dose: 54.0 mg/kg/injection, schedule: Q01DX001 (ip)",120 % of control
same,T/C,"dose: 60.0 mg/kg/injection, schedule: Q01DX001 (ip)",115 % of control
same,T/C,"dose: 60.0 mg/kg/injection, schedule: Q01DX Z (oral)",119 % of control
same,T/C,"dose: 61.0 mg/kg/injection, schedule: Q01DX001 (ip)",116 % of control
same,T/C,"dose: 64.0 mg/kg/injection, schedule: Q01DX Z (im)",109 % of control
same,T/C,"dose: 64.0 mg/kg/injection, schedule: Q01DX Z (sc)",102 % of control
same,T/C,"dose: 80.0 mg/kg/injection, schedule: Q12HX010 (ip)",115 % of control
same,T/C,"dose: 90.0 mg/kg/injection, schedule: Q01DX001 (ip)",121 % of control
same,T/C,"dose: 90.0 mg/kg/injection, schedule: Q03DX006 (ip)",119 % of control
same,T/C,"dose: 91.0 mg/kg/injection, schedule: Q01DX001 (ip)",113 % of control
same,T/C,"dose: 100.0 mg/kg/injection, schedule: Q01DX001 (ip)",111 % of control
same,T/C,"dose: 100.0 mg/kg/injection, schedule: Q01DX003 (ip)",117 % of control
same,T/C,"dose: 100.0 mg/kg/injection, schedule: Q02DX008 (ip)",95 % of control
same,T/C,"dose: 105.0 mg/kg/injection, schedule: Q07DX003 (ip)",151 % of control and 152 % of control
same,T/C,"dose: 121.0 mg/kg/injection, schedule: Q01DX001 (ip)",119 % of control
same,T/C,"dose: 138.0 mg/kg/injection, schedule: Q01DX001 (ip)",152 % of control
same,T/C,"dose: 160.0 mg/kg/injection, schedule: Q12HX006 (ip)",113 % of control
same,T/C,"dose: 180.0 mg/kg/injection, schedule: Q03DX006 (ip)",105 % of control
same,T/C,"dose: 200.0 mg/kg/injection, schedule: Q01DX001 (ip)",103 % of control
same,T/C,"dose: 256.0 mg/kg/injection, schedule: Q01DX006 (iv)",94 % of control
same,T/C,"dose: 400.0 mg/kg/injection, schedule: Q01DX001 (ip)",100 % of control
